# What was measured:
# [1] = tested on: Staphylococcus aureus ATCC 25923, MSSA; experiment: Antibacterial MIC assay, Gram-positive panel; format: cell-based; conditions: Table S1 panel; n=4
# Source text: (§1) Bis(dimethyl-η4)-((1Z,1'E,5Z,5'E)-(1,1'-bi(cyclooctadiene))diplatinum(II) (Pt14) Smiles: C1C=CCCC(=CC1)C1=CCCC=CCC1.C[Pt]C.C[Pt]C
# (§2) InChIKey: PHIWIZAHOBWKFJ-HPCBIOCFSA-N
# (§3) Link to selected data that was repeated to approve the identity of the compounds: https://dx.doi.org/10.14272/PHIWIZAHOBWKFJ-HPCBIOCFSA-N.1
# (§4) ATCC strains were sourced from the American Type Culture Collection and NRS strains from NARSA (Network on Antimicrobial Resistance in Staphylococcus aureus) via BEI Resources (www.beiresources.org), with clinical MSSA and MRSA isolates from Prof Graeme Nimmo, Queensland […]
# (§5) Health Central Pathology. […]
# (§6) Antibacterial minimum inhibitory concentration (MIC) assay
# (§7) Compound Assay Plate Preparation: Compounds were dissolved in DMSO at 10mM (CO-ADD screening) or 4 mM (follow up screening) and were plated in a 2-fold dose response from 20 to 0.156 µM or 200 to 0.006 µM respectively, with a maximum of 0.5% or 1% DMSO, final in the assay […]
# (§8) plated in a 2-fold dose response from 200 to 0.006 µM, with a maximum of 1 % DMSO, final in the assay concentration. (in-house screening)
# (§9) For all the bacterial assays, each strain was cultured in Cation-adjusted Mueller Hinton broth (CAMHB; Bacto Laboratories 212322) at 37 °C overnight. A sample of each culture was then diluted 40-fold in fresh CAMHB and incubated at 37 °C for 1.5–3 h. The resultant mid-log phase cultures were diluted with CAMHB (CFU mL−1 measured by OD600), then added to each well of the compound-containing plates (384-well non-binding surface (NBS) plates; Corning CLS3640), giving a cell density of 5 × 10^5 CFU mL−1 and a total volume of 50 μL. Plates were covered and incubated at 37 °C for 18 h without shaking. Inhibition of bacterial growth was determined measuring absorbance at 600 nm (OD600), using media only as negative control and bacteria without inhibitors as positive control. MIC values were determined as the lowest concentration at which the growth was inhibited at ≥80%. Colistin sulfate (Sigma C4461) and vancomycin HCl (Sigma 861987) were used as internal controls on each plate for Gram-negative and Gram-positive bacteria, respectively. […]
# [2] = tested on: Staphylococcus aureus VRS 1, VRSA (VanA); experiment: Antibacterial MIC assay, Gram-positive panel; format: cell-based; conditions: Table S1 panel; n=4
# Source text: as §1, §2, §3, §4, §5, §6, §7, §8, §9
# [3] = tested on: E. coli tolC (efflux pump deficient); experiment: MIC against E. coli membrane mutants; format: cell-based, Escherichia coli; conditions: Table S2
# Procedure: as §6
# (§10) concentration. (in-house screening)
# (§11) Bacto Laboratories 212322) at 37 °C overnight.
# (§12) The resultant mid-log phase cultures were diluted
# (§13) Gram-negative and Gram-positive bacteria, respectively.
# (§14) final concentration range of 0.8 – 100 µM.
# (§15) inhibitors as positive control. […]
# [4] = tested on: E. faecium ATCC 51559 MDR, VRE; experiment: MIC in the presence of human serum (serum reversal); format: cell-based, Enterococcus faecium; conditions: 10% serum
# Source text: (§16) To obtain some initial insight into the apparent disparity between in vitro and in vivo results, we repeated the MIC experiments against four selected Gram‐positive strains in the presence of 10 % or 50 % human serum (Table S3). Pt1 and Pt2 maintained some antibacterial activity against B. subtilis in the presence of 10 % serum, but a complete loss of activity was observed against MRSA and GISA (50 % serum), and VRE (10 % serum). […] Systemic administration is therefore unlikely to be a suitable administration route for this class of compounds unless an alternative formulation that can prevent serum binding (e. g. by lipid or nanoparticle encapsulation) can be found. […] Further in vivo studies should therefore focus on more suitable disease models. […]
# as §6, §10, §11, §12, §13, §14, §15
# [5] = tested on: HEK-293 ATCC CRL-1573 human embryonic kidney cells; format: cell-based
# Procedure: As part of the CO‐ADD screening, all compounds that show any activity against a microbial strain are evaluated for their cytotoxicity against human embryonic kidney cells (HEK‐293) and for haemolysis against human red blood cells. None of the compounds tested for cytotoxicity (Pt1‐9 and Pd1) caused any significant cell death up to concentrations of 100 μM. […] We have also observed higher IC50 values for the methylated complexes Pt3 and Pt4 against HeLa cells in previous work.[16] […]
# (§17) inhibitors as positive control.
# (§18) Tamoxifen (Sigma T5648) was used
# (§19) as internal control on each plate.
# in a Neubauer haemocytometer. […]
# [6] = tested on: Staphylococcus aureus ATCC 43300 (MRSA); experiment: microbe, parasite or virus in culture; format: cell-based; conditions: for MIC Sa: CO‐ADD screening; for MIC: Table S1 panel, n=2
# Procedure: (§20) All compounds submitted to CO‐ADD are initially screened against five bacterial strains (Staphylococcus aureus (MRSA), E. coli, Klebsiella pneumoniae, Pseudomonas aeruginosa, Acinetobacter baumannii) and two fungal strains (Candida albicans, Cryptococcus neoformans) at a single concentration (32 μg/mL or 20 μM) performed as a high‐throughput primary screening.[[11], [17a]] Any compounds that show significant growth inhibition against any of the tested strains at this step are then evaluated in a dose‐response assay against these same strains. […]
# (§21) Smiles: C1C=CCCC(=CC1)C1=CCCC=CCC1.C[Pt]C.C[Pt]C […]
# as §4, §5, §6, §7, §8, §9
# S. aureus NRS 17 GISA = experiment: MIC in the presence of human serum (serum reversal); format: cell-based, Staphylococcus aureus; conditions: 50% serum
# Source text: as §16, §6, §10, §11, §12, §13, §14, §15
# [7] = tested on: S. aureus ATCC 43300 MRSA; experiment: as above; format: cell-based, Staphylococcus aureus; conditions: 50% serum
# Source text: as §16, §6, §10, §11, §12, §13, §14, §15
# [8] = tested on: B. subtilis ATCC 6051 type strain; experiment: as above; format: cell-based, Bacillus subtilis; conditions: 10% serum
# Source text: as §16, §6, §10, §11, §12, §13, §14, §15
# [9] = tested on: Klebsiella pneumoniae ATCC 700603 (ESBL SHV‐18)
# Procedure: as §20, §21, §4, §5, §6, §7, §8, §9
# [10] = tested on: Pseudomonas aeruginosa ATCC 27853; experiment: Antibacterial MIC assay; format: cell-based; conditions: CO‐ADD screening
# Procedure: as §20, §21, §4, §5, §6, §7, §8, §9
# [11] = tested on: Escherichia coli ATCC 25922; experiment: Antibacterial MIC assay; format: cell-based; conditions: CO‐ADD screening
# Procedure: as §20, §21, §4, §5, §6, §7, §8, §9
# [12] = tested on: Acinetobacter baumannii ATCC 19606; experiment: Antibacterial MIC assay; format: cell-based; conditions: CO‐ADD screening
# Procedure: as §20, §21, §4, §5, §6, §7, §8, §9
# [13] = tested on: Cryptococcus neoformans H99 ATCC 208821; experiment: Antifungal MIC (CO-ADD screening); format: cell-based
# Procedure: as §2
# (§22) Health Central Pathology. Candida albicans (ATCC 90028, NCCLS 11), Cryptococcus neoformans
# as §6, §10, §11
# [14] = tested on: Candida albicans ATCC 90028; experiment: Antifungal MIC (CO-ADD screening); format: cell-based
# Procedure: as §2, §22, §6, §10, §11
# [15] = tested on: Enterococcus faecalis ATCC 29212, control strain; experiment: Antibacterial MIC assay, Gram-positive panel; format: cell-based; conditions: Table S1 panel; n=4
# Procedure: as §21, §4, §5, §6, §7, §8, §9
# [16] = tested on: Enterococcus faecium Clinical Isolate, VRE (VanA); experiment: Antibacterial MIC assay, Gram-positive panel; format: cell-based; conditions: Table S1 panel; n=4
# Procedure: as §21, §4, §5, §6, §7, §8, §9
# [17] = tested on: Enterococcus faecalis Clinical Isolate, VRE (VanB); experiment: Antibacterial MIC assay, Gram-positive panel; format: cell-based; conditions: Table S1 panel; n=4
# Procedure: as §21, §4, §5, §6, §7, §8, §9
# [18] = tested on: Staphylococcus epidermidis ATCC 14990, type strain; experiment: Antibacterial MIC assay, Gram-positive panel; format: cell-based; conditions: Table S1 panel; n=4
# Procedure: as §21, §4, §5, §6, §7, §8, §9
# [19] = tested on: Enterococcus faecium ATCC 35667, type strain; experiment: Antibacterial MIC assay, Gram-positive panel; format: cell-based; conditions: Table S1 panel; n=4
# Procedure: as §21, §4, §5, §6, §7, §8, §9
# [20] = tested on: Staphylococcus epidermidis NRS 60, VISE; experiment: Antibacterial MIC assay, Gram-positive panel; format: cell-based; conditions: Table S1 panel; n=4
# Procedure: as §21, §4, §5, §6, §7, §8, §9
# human red blood cells = experiment: Haemolysis assay; format: cell-based; conditions: for Haemolysis HC10: concentration inducing 10 % haemolysis; for Haemolysis HC50: concentration inducing 50 % haemolysis
# Procedure: As part of the CO‐ADD screening, all compounds that show any activity against a microbial strain are evaluated for their cytotoxicity against human embryonic kidney cells (HEK‐293) and for haemolysis against human red blood cells. None of the compounds tested for cytotoxicity (Pt1‐9 and Pd1) caused any significant cell death up to concentrations of 100 μM. […] We have also observed higher IC50 values for the methylated complexes Pt3 and Pt4 against HeLa cells in previous work.[16]
# as §12, §13, §14, §17, §18, §19
# in a Neubauer haemocytometer.
# incubated for 1 h at 37 °C, without shaking.
# HC10 and HC50 (concentration at which 10%
# for top, bottom and slope using Prism 8. […]
# [21] = tested on: MCF‐7 breast cancer cells; set-up: method as in earlier work; conditions: ref 14a, read-out: IC50 cytotoxicity; cited from earlier work
# HT‐29 colon carcinoma = tested on: HT‐29 colon carcinoma; set-up: method as in earlier work; conditions: ref 14a, read-out: IC50 cytotoxicity; cited from earlier work
# [22] = tested on: Enterococcus faecium ATCC 51559, MDR, VRE (VanA); experiment: Antibacterial MIC assay, Gram-positive panel; format: cell-based; conditions: Table S1 panel; n=2
# Procedure: as §21, §4, §5, §6, §7, §8, §9
# [23] = tested on: E. coli lpxC (non‐efficient lipid A production mutant); experiment: MIC against E. coli membrane mutants; format: cell-based, Escherichia coli; conditions: Table S2
# Procedure: as §6, §10, §11, §12, §13, §14, §15
# [24] = tested on: Staphylococcus aureus NRS 17, GISA; experiment: Antibacterial MIC assay, Gram-positive panel; format: cell-based; conditions: Table S1 panel; n=2
# Procedure: as §21, §4, §5, §6, §7, §8, §9
Compound,MIC [1],MIC [2],MIC E. coli TolC [3],MIC in the presence of human serum [4],CC50 [5],MIC Sa [6],MIC in the presence of human serum (S. aureus NRS 17 GISA),MIC in the presence of human serum [7],MIC in the presence of human serum [8],MIC Kp [9],MIC Pa [10],MIC Ec [11],MIC Ab [12],MIC Cn [13],MIC [17],MIC [18],MIC [19],MIC [20],Haemolysis HC10 (human red blood cells),Haemolysis HC50 (human red blood cells),also measured
C1=CCCC=CCC1.[CH3][Pt][C](F)(C(F)(F)F)C(F)(F)F [Pt6],100 µM,200 µM,> 200 µM,> 200 µM,> 100 µM,10 µM,> 200 µM,> 200 µM,> 200 µM,>20 µM,>20 µM,>20 µM,>20 µM,20 µM,> 200 µM,100 µM,> 200 µM,200 µM,>100 µM,>100 µM,MIC [6]: 6.25 µM; MIC Ca [14]: 20 µM; MIC [15]: > 200 µM; MIC [16]: 200 µM
C1=CCCC=CCC1.[CH3][Pt][Cl] [Pt4],100 µM,> 200 µM,–,> 200 µM,> 100 µM,>20 µM,> 200 µM,> 200 µM,> 200 µM,>20 µM,>20 µM,>20 µM,>20 µM,10 to 20 µM,> 200 µM,50 µM,> 200 µM,100 µM,10.23 µM,52.11 µM,IC50 [21]: 11.2 ± 1.4 µM; MIC [6]: 6.25 µM; IC50 (HT‐29 colon carcinoma): 8.3 ± 3 µM; MIC Ca [14]: 5 to 10 µM; MIC [15]: > 200 µM; MIC [16]: 200 µM; MIC [22]: 25 µM
C1=CCCC=CCC1.[CH3][Pt][CH3] [Pt3],50 µM,> 200 µM,> 200 µM,> 200 µM,> 100 µM,–,> 200 µM,> 200 µM,> 200 µM,–,–,–,–,–,200 µM,6.25 µM,200 µM,25 µM,>100 µM,>100 µM,MIC E. coli lpxC [23]: 200 µM
C1=CCCC=CCC1.COc1cc[c]([Pt][CH3])cc1 [Pt5],100 µM,200 µM,> 200 µM,> 200 µM,> 100 µM,>20 µM,> 200 µM,> 200 µM,> 200 µM,>20 µM,>20 µM,>20 µM,>20 µM,20 µM,> 200 µM,50 µM,> 200 µM,50 µM,88.43 µM,>100 µM,MIC E. coli lpxC [23]: > 200 µM; MIC Ca [14]: 10 µM; MIC [15]: > 200 µM; MIC [16]: 200 µM; MIC [24]: 100 µM; MIC [22]: 200 µM
